Results: ChEMBL document CHEMBL1201862, “PubChem BioAssay data set” (2004)
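Dose response: 5 concentrations. Exposure: 48 h. Format: 96-well plates. Endpoint: linear interpolation; highest concentration if not reached. The concentration for 50% growth inhibition is given as GI50.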 The source made the active and inactive calls. Rule as the data show it: active = GI50 up to about 1.1 µM and inactive = higher.

Columns and labels:
Experiment in all cases: NCI-60 cell line screen, 48 h
[1] = tested on: OVCAR-8
[2] = tested on: SK-MEL-28
[3] = tested on: SNB-19
[4] = tested on: K562
[5] = tested on: NCI-H226
[6] = tested on: KM12
[7] = tested on: IGROV-1
[8] = tested on: EKVX
[9] = tested on: CCRF-CEM
[10] = tested on: U-251
[11] = tested on: UO-31
[12] = tested on: NCI-H522
[13] = tested on: RXF 393
[14] = tested on: SF-295
[15] = tested on: SR

Measured: GI50

CC1OC(OC2C(OC(=O)[C@]34CCC(C)(C)CC3C3=CCC5[C@@]6(C)C[C@H](O)[C@H](OC7OC(CO)C(O)C(O)C7N)[C@@](C)(C(=O)O)C6CC[C@@]5(C)C3(C)CC4)OCC(O)C2O)C(O)C(O)C1OC1OCC(O)C(O)C1O (stereo not given in full)
inactive: [1] > 100 µM | [2] > 100 µM | [3] > 100 µM | [4] > 100 µM | [5] > 100 µM | [6] > 100 µM | [7] > 100 µM | [8] > 100 µM | [9] > 100 µM | [10] > 100 µM | [11] > 100 µM | [12] > 100 µM | [13] > 100 µM | [14] > 100 µM

CC/C(CC(=O)CCC(=O)Nc1c(C)cccc1C)=N\NC(=O)NN
inactive: [1] > 100 µM | [2] > 10 µM | [3] > 100 µM | [4] > 100 µM | [6] > 100 µM | [7] > 100 µM | [8] > 100 µM | [9] > 100 µM | [10] > 100 µM | [11] > 100 µM | [13] > 100 µM | [14] > 100 µM | [15] > 100 µM

CCC1(Cl)C(=O)NC(=O)N(C2CC(O)C(CO)O2)C1N=[N+]=[N-] (stereo not given)
inactive: [1] > 100 µM | [2] > 100 µM | [3] > 100 µM | [4] > 100 µM | [7] > 100 µM | [8] > 100 µM | [9] > 100 µM | [10] > 100 µM | [11] > 100 µM | [12] > 100 µM | [13] 41.2 µM | [14] > 100 µM

O=Cc1cc(O)c(O)c(O)c1-c1c(C=O)cc(O)c(O)c1O
inactive: [1] > 100 µM | [2] > 100 µM | [3] > 100 µM | [4] 67.6 µM | [5] > 100 µM | [6] > 100 µM | [7] > 100 µM | [8] > 100 µM | [9] 85.7 µM | [10] > 100 µM | [11] > 100 µM | [12] > 100 µM | [14] > 100 µM | [15] 82.8 µM

Cc1ccc(C)c(N2C(=O)C(=O)C(c3nc4ccccc4o3)C(=O)C2=O)c1
inactive: [1] > 100 µM | [2] 34 µM | [3] > 100 µM | [5] > 100 µM | [6] > 100 µM | [7] 35.9 µM | [8] > 100 µM | [9] 17 µM | [10] 96.6 µM | [11] > 100 µM | [13] > 100 µM | [14] > 100 µM | [15] 28.8 µM

O=NN(CCCl)C(=O)NCc1ccc[n+]([O-])c1
inactive: [1] > 100 µM | [2] > 100 µM | [4] > 100 µM | [5] > 100 µM | [6] > 100 µM | [7] > 100 µM | [8] > 100 µM | [9] 65.8 µM | [10] 43.2 µM | [13] > 100 µM | [14] 64.1 µM | [15] 33 µM

CC1=CCC2(C#N)CCC1C2=O (stereo not given)
inactive: [1] > 100 µM | [3] > 100 µM | [4] > 100 µM | [5] > 100 µM | [6] > 100 µM | [7] > 100 µM | [8] > 100 µM | [9] > 100 µM | [10] > 100 µM | [11] > 100 µM | [12] > 100 µM | [14] > 100 µM | [15] > 100 µM

Cc1cn(C2CC3C(COCN3O)O2)c(=O)[nH]c1=O (stereo not given)
inactive: [1] > 100 µM | [2] > 100 µM | [3] > 100 µM | [4] > 100 µM | [5] > 100 µM | [6] > 100 µM | [7] > 100 µM | [8] > 100 µM | [9] > 100 µM | [10] > 100 µM | [11] > 100 µM | [13] > 100 µM | [14] > 100 µM | [15] > 100 µM
